According to patent US20060094649A1, “Hla-a1,-a2,-a3,-a24,-b7, and-b44 tumor associated antigen peptides and compositions” (priority 2002, published 2006):
pIC50: −log10 of the molar value. Entries after “also recorded” stand apart in the source; their conditions may differ. Like-named read-outs stand apart in the source and are kept apart here. No end group written: not given here.

Tests used:
HLA-A*0101 = HLA-A*0101 (Homo sapiens, UniProt P04439, A114D/A174V/A182V/D101N/D185E/E176A/E190D/L180R/Q94H/R68K/S129P/T187R/V100A/V91M/W191G); test: Class I peptide-binding assay, HLA-A*0101
HLA-A*0301 = HLA-A*0301 (Homo sapiens, UniProt P04439); test: Class I peptide-binding assay, HLA-A*0301
HLA-A*1101 = HLA-A*1101 (Homo sapiens, UniProt P04439, A114D/D185E/E176A/F33Y/L180Q/S129P/T187R); test: Class I peptide-binding assay, HLA-A*1101
[1] = system: wildtype peptide-pulsed target cells; test: CTL recognition of wildtype peptide-pulsed targets; format: cell-based, human; settings: for pulsed EHM target cell line: positive responses/total tested, positive = 10% specific lysis above background or twice background and at least 50 pg IFNg/well in at least one of 48 wells
[2] = system: tumor cell lines expressing the TAA; test: CTL recognition of endogenous targets (tumor cell lines expressing the TAA); format: cell-based, human; settings: for Tumor target cell line: only wells positive for peptide-pulsed targets
[3] = system: peptide-pulsed target cells; settings: outside investigators; cited from earlier work
HLA-B*4002 = HLA-B*4002 (Homo sapiens, UniProt P01889, A65T/A93T/A95T/D138N/D201E/D98Y/E176V/E204Q/E69K/K202T/N87E/Q56L/Q94N/R180L/S48T/Y33H/Y91S); test: Class I peptide-binding assay, HLA-B*4002 (B44 supertype); settings: HER2/neu-derived B44 peptides, Table 27; binding to purified HLA-B*4002
[4] = co-emulsified with HPV-derived CTL epitopes; cited from earlier work
HLA-A*3101 = HLA-A*3101 (Homo sapiens, UniProt P04439, A270S/D185E/E176V/E277Q/F33T/G231S/G80R/H175R/I121M/I218V/I322F/K168Q/L300P/L318F/M331R/P217A/Q94H/R138Q/T323A/T345S/T97I/V358M); test: Class I peptide-binding assay, HLA-A*3101; settings: Table 16b, Her2/neu-derived
HLA-A*3301 = HLA-A*3301 (Homo sapiens, UniProt P04439, A270S/D185E/E176V/E277Q/E87N/F33T/G231S/H175R/I121M/I218V/I322F/K168Q/K210R/L300P/L318F/M331R/P217A/Q86R/Q94H/R138Q/T323A/T345S/T97I/V358M/Y195H); test: Class I peptide-binding assay, HLA-A*3301; settings: Table 16b, Her2/neu-derived
HLA-A*6801 = HLA-A*6801 (Homo sapiens, UniProt P04439, A269V/D185E/E176V/E277Q/E87N/F33Y/G231S/I121M/I166T/I218V/L180W/L300P/L318F/N151K/P208A/P217A/Q86R/R169H/T345S); test: Class I peptide-binding assay, HLA-A*6801; settings: Table 16b, Her2/neu-derived
HLA-A*2402 = HLA-A*2402 (Homo sapiens, UniProt P04439, D101N/D140Y/D185E/E176V/E190D/F33S/G103R/G107R/I119L/I121M/I306V/K335N/L105A/L180Q/L300P/N151K/N90K/Q86E/Q94H/R106L/R138H/R89G/T104I/T345S/V100E/W191G/Y123F); test: Class I peptide-binding assay, HLA-A*2402; settings: Table 19a, CEA-derived A24 binders
[5] = 938mel (A3−, Mage2+, Mage3+) and 624mel (A3+, Mage2+, Mage3+)
[6] = Table 16c, second part, positive/total tested
[7] = Table 16d, second part, positive/total tested
[8] = SW403 (A3+, p53−) and SW403/p53 transfectant (A3+, p53+)
[9] = Table 18a, CEA-derived A1 binders

For H-LTQEFVQENY-OH, the pIC50 (HLA-A*0101; Table 18c, Mage2/3-derived A1 binders) was 7.02.
Work on SSCMGGMNR [compound 117] yielded a pIC50 (HLA-A*0301; Table 16d, p53-derived) of 6.26 and a pIC50 (HLA-A*1101; Table 16d, p53-derived) of 8.37.
In the case of `CC[C@H](NC(=O)[C@H](CCCNC(=N)N)NC(=O)[C@H](CCCNC(=N)N)NC(=O)[C@@H](NC(=O)[C@@H](N)C(C)C)C(C)C)C(=O)N1CCC[C@H]1C(=O)N[C@@H](Cc1c[nH]cn1)C(=O)N[C@@H](Cc1c[nH]cn1)C(=O)N[C@@H](CCC(=O)O)C(=O)N[C@@H](CCCCN)C(=O)O` [VVRRBPHHEK], the “Immunogenicity Wildtype” value ([1]; Table 20) was 1/2 and the “Immunogenicity Tumor” value ([2]; Table 20) was 1/2.
In the case of “MAGE3.196 9-mer: MAGE3-derived B7 motif wildtype 9-mer”, the “CTL induction / antigenicity reported in the literature (in words)” value [3] is given as “antigenicity”.
For `CC(C)C[C@H](NC(=O)[C@H](CC(C)C)NC(=O)[C@H](CC(C)C)NC(=O)[C@H](Cc1ccccc1)NC(=O)[C@H](Cc1c[nH]cn1)NC(=O)[C@@H](NC(=O)[C@@H](N)CC(C)C)C(C)C)C(=O)N[C@@H](CCCCN)C(=O)N[C@@H](CCCCN)C(=O)O` [compound 87], the “Tumor target cell line” value [2, 5] was 0/1 and the “Immunogenicity Tumor” value [2, 6] was 0/1.
In the case of `CSCC[C@H](NC(=O)[C@H](CC(C)C)NC(=O)[C@H](CCCCN)NC(=O)[C@H](CCCCN)NC(=O)[C@H](Cc1c[nH]cn1)NC(=O)[C@H](CCCNC(=N)N)NC(=O)[C@H](CO)NC(=O)[C@@H](NC(=O)[C@@H](N)CO)[C@@H](C)O)C(=O)N[C@@H](Cc1ccccc1)C(=O)N[C@@H](CCCCN)C(=O)O` [compound 126], the “pulsed EHM target cell line” value [1] was 1/2.
For `CC[C@H](C)[C@H](NC(=O)CNC(=O)[C@H](Cc1ccccc1)NC(=O)[C@@H](NC(=O)[C@@H](N)C(C)C)C(C)C)C(=O)N[C@@H](CC(C)C)C(=O)N[C@H](C(=O)N[C@@H](CCCCN)C(=O)N[C@@H](CCCNC(=N)N)C(=O)O)[C@@H](C)CC`, the “Immunogenicity Tumor” value ([2]; Table 20) was 0/1.
For `CC[C@H](C)[C@H](NC(=O)[C@@H](NC(=O)[C@H](CS)NC(=O)[C@@H](NC(=O)[C@@H]1CCCN1C(=O)[C@@H]1CCCN1C(=O)[C@H](CCC(N)=O)NC(=O)[C@@H]1CCCN1C(=O)[C@H](CC(C)C)NC(=O)[C@H](CCCNC(=N)N)NC(=O)[C@H](CCC(=O)O)NC(=O)CN)[C@@H](C)CC)[C@@H](C)O)C(=O)O` [compound 493], the pIC50 (HLA-B*4002) was 8.02.
In the case of `CC[C@H](C)[C@H](NC(=O)[C@@H](NC(=O)[C@@H](NC(=O)[C@H](CO)NC(=O)[C@@H](N)Cc1ccccc1)[C@@H](C)O)[C@@H](C)O)C(=O)N[C@@H](CC(N)=O)C(=O)N[C@@H](Cc1ccc(O)cc1)C(=O)N[C@H](C(=O)N[C@@H](CC(C)C)C(=O)N[C@@H](Cc1c[nH]c2ccccc12)C(=O)N[C@@H](CCCNC(=N)N)C(=O)O)[C@@H](C)O` [compound 80], the “Immunogenicity Wildtype” value [1, 6] was 0/2.
In the case of “aKXVAAWTLKAAa-NH2 [PADRE®, a=D-alanine, X=cyclohexylalanine]”, the “safety in the trial (in words)” value [4] is given as “favorable safety profile”.
For `CC(C)[C@H](NC(=O)[C@@H](N)CCCNC(=N)N)C(=O)N[C@@H](CS)C(=O)N[C@@H](C)C(=O)N[C@@H](CS)C(=O)N1CCC[C@H]1C(=O)NCC(=O)N[C@@H](CCCNC(=N)N)C(=O)O` [compound 124], the “pulsed EHM target cell line” value [1] was 0/1.
With `CC[C@H](C)[C@H](NC(=O)CNC(=O)[C@H](Cc1ccccc1)NC(=O)[C@@H](NC(=O)[C@@H](N)C(C)C)C(C)C)C(=O)N[C@@H](CC(C)C)C(=O)N[C@H](C(=O)N[C@@H](CCCCN)C(=O)N[C@@H](CCCNC(=N)N)C(=O)O)[C@@H](C)CC` [compound 57] the “Number of CTL inductions yielding positive responses/total tested, Wildtype-pulsed EHM target cell line” value ([1]; positive = 10% specific lysis above background (51Cr release) or twice background and at least 50 pg IFNγ/well in at least one of 48 wells) was 1/3.
`CC[C@H](C)[C@H](NC(=O)CNC(=O)[C@H](Cc1ccccc1)NC(=O)[C@@H](NC(=O)[C@@H](N)C(C)C)C(C)C)C(=O)N[C@@H](CC(C)C)C(=O)N[C@H](C(=O)N[C@@H](CCCCN)C(=O)N[C@@H](CCCNC(=N)N)C(=O)N[C@@H](CCCNC(=N)N)C(=O)O)[C@@H](C)CC` [compound 58] gave a pIC50 (HLA-A*0301; Table 16b, Her2/neu-derived) of 5.44, a pIC50 (HLA-A*1101; Table 16b, Her2/neu-derived) of 6.43 and a pIC50 (HLA-A*3101) of 6.54. The pIC50 (HLA-A*3301) was 6.71 and the pIC50 (HLA-A*6801) was 7.82.
Work on H-LWWYNGQSL-OH yielded a pIC50 (HLA-A*2402) of 5.83.
For `CC[C@H](C)[C@H](NC(=O)[C@H](C)NC(=O)[C@H](CCSC)NC(=O)[C@H](C)NC(=O)[C@H](CCCNC(=N)N)NC(=O)[C@@H](NC(=O)[C@H](CCCNC(=N)N)NC(=O)[C@@H](NC(=O)CN)[C@@H](C)O)C(C)C)C(=O)N[C@@H](Cc1ccc(O)cc1)C(=O)N[C@@H](CCCCN)C(=O)O` [compound 111], the “pulsed EHM target cell line” value [1] was 0/1.
In the case of “p53.172B5K10: p53-derived A3 supertype analog, B at position 5 and K at position 10”, the “CTL recognition of wildtype peptide-pulsed targets (in words)” value [1] was “recognize analog and wildtype peptide-pulsed targets; also recorded: recognize both the wildtype sequence; also recorded: lyse wildtype-peptide coated targets”, the “CTL recognition of tumor / endogenous targets (in words)” value [2] was “transfected tumor target cells; also recorded: p53 transfected tumor targets” and the “CTL recognition of tumor / endogenous targets (in words)” value ([2]; listed as p53.172.B5KIO) was “induce tumor-reactive CTLs”.
For `CC[C@H](NC(=O)[C@H](CCCNC(=N)N)NC(=O)[C@H](CCCNC(=N)N)NC(=O)[C@@H](NC(=O)[C@@H](N)C(C)C)C(C)C)C(=O)N1CCC[C@H]1C(=O)N[C@@H](Cc1c[nH]cn1)C(=O)N[C@@H](Cc1c[nH]cn1)C(=O)N[C@@H](CCC(=O)O)C(=O)N[C@@H](CCCCN)C(=O)O` [compound 116], the “Immunogenicity Wildtype” value [1, 7] was 1/2, the “pulsed EHM target cell line” value [1] was 1/2 and the “Tumor target cell line” value [2, 8] was 1/2. For the same compound, the “Immunogenicity Tumor” value [2, 7] was 1/2.
In the case of “MAGE3.189: MAGE3-derived A3 supertype wildtype peptide (Table 16c) (LLGDNQIMPK)”, the “CTL induction / antigenicity reported in the literature (in words)” value [3] is given as “antigenic”.
Compound H-ITEKNSCLY-OH has a pIC50 (HLA-A*0101; [9]) of 6.19.
With `C[C@@H](O)[C@H](NC(=O)[C@@H](N)CCCCN)C(=O)N[C@@H](Cc1ccc(O)cc1)C(=O)N[C@@H](CCC(N)=O)C(=O)NCC(=O)N[C@@H](CO)C(=O)N[C@@H](Cc1ccc(O)cc1)C(=O)NCC(=O)N[C@@H](Cc1ccccc1)C(=O)N[C@@H](CCCCN)C(=O)O` the “Immunogenicity Wildtype” value ([1]; Table 20) was 0/1 and the “Immunogenicity Tumor” value ([2]; Table 20) was 0/1.
With `C[C@@H](O)[C@H](NC(=O)[C@@H](N)CCCCN)C(=O)N[C@@H](Cc1ccc(O)cc1)C(=O)N[C@@H](CCC(N)=O)C(=O)NCC(=O)N[C@@H](CO)C(=O)N[C@@H](Cc1ccc(O)cc1)C(=O)NCC(=O)N[C@@H](Cc1ccccc1)C(=O)N[C@@H](CCCCN)C(=O)O` [compound 104] the “Immunogenicity Wildtype” value [1, 7] was 0/1, the “pulsed EHM target cell line” value [1] was 0/1 and the “Tumor target cell line” value [2, 8] was 0/1. For the same compound, the “Immunogenicity Tumor” value [2, 7] was 0/1.
For H-HSDSNFSPQY-OH, the pIC50 (HLA-A*0101; [9]) was 7.35.
For `CC[C@H](C)[C@H](NC(=O)[C@@H](NC(=O)[C@@H](N)[C@@H](C)O)[C@@H](C)O)C(=O)N[C@@H](CC(N)=O)C(=O)N[C@@H](Cc1ccc(O)cc1)C(=O)N[C@H](C(=O)N[C@@H](CC(C)C)C(=O)N[C@@H](Cc1c[nH]c2ccccc12)C(=O)N[C@@H](CCCNC(=N)N)C(=O)O)[C@@H](C)O` [compound 82], the “pulsed EHM target cell line” value [1] was 7/7 and the “Tumor target cell line” value [2, 5] was 2/5.
For `CC(C)C[C@H](NC(=O)[C@H](C)NC(=O)[C@@H]1CCCN1C(=O)[C@H](CO)NC(=O)[C@H](Cc1ccc(O)cc1)NC(=O)[C@@H](NC(=O)[C@@H](N)CS)[C@@H](C)O)C(=O)N[C@@H](CC(N)=O)C(=O)N[C@@H](CCCCN)C(=O)O` [compound 107], the “pulsed EHM target cell line” value [1] was 0/1.
For `CC[C@H](C)[C@H](NC(=O)[C@@H](N)[C@@H](C)O)C(=O)N[C@@H](CO)C(=O)N1CCC[C@H]1C(=O)N[C@@H](CC(C)C)C(=O)N[C@@H](CC(N)=O)C(=O)N[C@H](C(=O)N[C@@H](CO)C(=O)N[C@@H](Cc1ccc(O)cc1)C(=O)N[C@@H](CCCCN)C(=O)O)[C@@H](C)O`, the “Immunogenicity Wildtype” value ([1]; Table 20) was 2/3.
Compound H-LTDNNSGSY-OH has a pIC50 (HLA-A*0101; [9]) of 7.02.
